The target in the assay is Gag-Pol polyprotein (Human immunodeficiency virus type 1 group M subtype B (isolate HXB2), UniProt P04585). The assay is described as follows: HIV-1 RT RNase H inhibitor potency, dose response, biochemical, probe assessment (AID 652). To be noted: pH 8; 23 °C.

This note sets out measurements from BindingDB's records for doi:10.7270/Q2H70D5W (University of Pittsburgh, 2007).

Broadly, the IC50 is the midpoint of a concentration-inhibition curve. Read a high IC50 as weaker potency. As to `COc1ccc2ccccc2c1C1CC(=O)N2CN(C3CCCCC3)CSC2=C1C#N` (stereo not drawn) [3-cyclohexyl-8-(2-methoxynaphthalen-1-yl)-6-oxo-2,4,7,8-tetrahydropyrido[2,1-b][1,3,5]thiadiazine-9-carbonitrile], the IC50 was found to be 3.62 µM.
The compound `Cc1ccc(-n2sc3ccccc3c2=O)cc1S(=O)(=O)N1CCCCC1` [2-(4-methyl-3-piperidin-1-ylsulfonyl-phenyl)-1,2-benzothiazol-3-one] yielded an IC50 of 0.164 µM.
With `CCCc1cc(C(=O)Nc2sc3c(c2C#N)CCC3)no1` [MLS000116386], half-maximal inhibition (IC50) required 2.8 µM.
Turning to `Cc1nc(C)c(C(=O)Nc2nc3c(C)cccc3s2)o1` [2,4-dimethyl-N-(4-methyl-1,3-benzothiazol-2-yl)-1,3-oxazole-5-carboxamide], it took 1.49 µM to reach half-maximal inhibition (IC50). Against the preceding compound, the IC50 is about 1.9-fold lower.
`c1ccc2[nH]c(SN3CCOCC3)nc2c1` gave an IC50 of 12.5 µM.
Compound `COC(=O)c1ccccc1S(=O)(=O)N(Cc1cc2cc3c(cc2[nH]c1=O)OCO3)C1CCCCC1` [SMR000002998] showed a half-inhibitory concentration (IC50) of 21.1 µM.
`Cn1ccnc1P(=S)(c1nccn1C)N1CCOCC1` [MLS000054793] had an IC50 of 11.8 µM.
`Cc1ccc2c(c1C)NC(C(=O)O)C1CC=CC21` (stereo not drawn) had a 50% inhibitory concentration (IC50) of 1.03 µM.
`CCOC(=O)c1sc(NC(=O)CSc2nnc(Cc3ccccc3)o2)c(C#N)c1C` [4-cyano-3-methyl-5-[[1-oxo-2-[[5-(phenylmethyl)-1,3,4-oxadiazol-2-yl]thio]ethyl]amino]-2-thiophenecarboxylic acid ethyl ester] showed an IC50 of 0.094 µM.
In the case of `O=C(CSc1nc2sc3c(c2c(=O)n1-c1ccccc1)CCCC3)NCc1ccco1` [MLS000115858] it was 17.2 µM; in that of `CCn1c(SCC(=O)c2ccc(O)c(O)c2)nnc1-c1ccccc1OC` [1-(3,4-dihydroxyphenyl)-2-[[4-ethyl-5-(2-methoxyphenyl)-1,2,4-triazol-3-yl]sulfanyl]ethanone], 2.36 µM.
Compound `COc1cc(-c2nn3c(Cc4ccccc4)nnc3s2)cc(OC)c1OC` [3-(phenylmethyl)-6-(3,4,5-trimethoxyphenyl)-[1,2,4]triazolo[3,4-b][1,3,4]thiadiazole] registered an IC50 of 4.78 µM.
Consider `CCC1(C)Cc2c(sc3c2c(=O)n(C)c2nnc(SCc4ccc5c(c4)OCO5)n32)CO1` (stereo not drawn) [MLS000030507], for which the concentration for half-maximal inhibition (IC50) turned out to be 23 µM.
As for `CSc1ccc(C2c3ccc(=O)c4c(C)oc(C)c4c3OC(=N)C2C#N)cc1` (stereo not drawn) [2-amino-7-keto-8,10-dimethyl-4-[4-(methylthio)phenyl]-4H-furo[1,2]cyclohepta[4,6-d]pyran-3-carbonitrile], inhibition was half-maximal at 5.81 µM (IC50). This IC50 lies about 4-fold lower than the previous one.
For `Cc1cccc(C)c1NC(=O)CSCC(=O)c1ccc(O)c(O)c1` [2-[2-(3,4-dihydroxyphenyl)-2-oxoethyl]sulfanyl-N-(2,6-dimethylphenyl)acetamide] the value was 3.8 µM; for `COC(=O)N(c1ccc(OC)cc1)P1(=S)OCCC(C)O1` (stereo not drawn) [MLS000043492], 1.02 µM; for `CCOC(=O)c1c(NC(=O)c2ccc(-n3cnnn3)cc2)sc2c1CCCC2` [2-[[4-(tetrazol-1-yl)benzoyl]amino]-4,5,6,7-tetrahydrobenzothiophene-3-carboxylic acid ethyl ester], 2.81 µM.
As to `COc1cc(C(=O)Nc2oc(-c3ccccc3)c(-c3ccccc3)c2C#N)cc(OC)c1OC` [MLS000051579], the IC50 is 6.05 µM.
Compound `Nc1c(C(=O)N2CCOCC2)sc(=S)n1-c1ccccc1` [(4-amino-3-phenyl-2-sulfanylidene-1,3-thiazol-5-yl)-morpholin-4-ylmethanone] yielded a concentration for half-maximal inhibition (IC50) of 4.97 µM.
In the case of `Cc1cc(NC(=O)CSc2nc3cc4c(cc3c(=O)n2CCc2ccccc2)OCO4)no1` [2-[(8-keto-7-phenethyl-[1,3]dioxolo[4,5-g]quinazolin-6-yl)thio]-N-(5-methylisoxazol-3-yl)acetamide], half-maximal inhibition (IC50) was put at 4.79 µM.
For `O=C(Nc1ccc2nc(-c3ccco3)c(-c3ccco3)nc2c1)N1CCCCCC1` the value was 0.953 µM; for `O=C(Nc1ccc(N2CCOCC2)cc1)c1ccc2nc(-c3ccco3)c(-c3ccco3)nc2c1` [2,3-bis(2-furanyl)-N-[4-(4-morpholinyl)phenyl]-6-quinoxalinecarboxamide], 22.6 µM; for `NC(=O)c1cc(-c2ccccc2)sc1NC(=O)Cc1ccc(S(=O)(=O)N2CCOCC2)s1` [2-[2-(5-morpholin-4-ylsulfonylthiophen-2-yl)ethanoylamino]-5-phenyl-thiophene-3-carboxamide], 7.35 µM.
The compound `Cc1cc(C)cc(OCC(=O)Nc2nonc2NC(=O)COc2cc(C)cc(C)c2)c1` [2-(3,5-dimethylphenoxy)-N-[4-[2-(3,5-dimethylphenoxy)ethanoylamino]-1,2,5-oxadiazol-3-yl]ethanamide] had an IC50 of 1.89 µM.
`CCOc1cc(C2CC(=O)N3CN(C4CCCCC4)CSC3=C2C#N)ccc1O` (stereo not drawn) [3-cyclohexyl-8-(3-ethoxy-4-hydroxy-phenyl)-6-keto-2,4,7,8-tetrahydropyrido[2,1-b][1,3,5]thiadiazine-9-carbonitrile] came in with an IC50 of 19.5 µM.
In turn, `CCCCC(CC)Cn1c2nc3ccccc3nc2c2c(=N)oc(C)nc21` (stereo not drawn) [MLS000098038] came in with an IC50 of 2.33 µM. This IC50 is about 8.4-fold lower than that of the compound before.
Compound `CC1CC(C)(C)NC(=S)S1` (stereo not drawn) [4,4,6-trimethyl-1,3-thiazinane-2-thione] returned an IC50 of 5.24 µM. Against the preceding compound, the IC50 is about 2.2-fold higher.
As for `COC(=O)N(c1ccccc1)P1(=S)OCCO1` [MLS000052970], the 50% inhibitory concentration (IC50) was 2.06 µM.
As to `Cc1nc(-c2cccc(S(=O)(=O)N3CCOCC3)c2)cs1` [4-[3-(2-methyl-1,3-thiazol-4-yl)phenyl]sulfonylmorpholine], the IC50 stood at 5.96 µM. This IC50 lies about 2.9-fold higher than the previous one.
`O=C(CSc1nc2ccccc2c2nc3ccccc3n12)NCc1ccco1` [2-(6-benzimidazolo[1,2-c]quinazolinylthio)-N-(2-furanylmethyl)acetamide] gave an IC50 of 8.73 µM.
The compound `CCCCC[C@H](O)C=C[C@H]1C=CC(=O)[C@@H]1C/C=C\CCCC(=O)O` [(Z)-7-[(1R,5S)-2-oxidanylidene-5-[(E,3S)-3-oxidanyloct-1-enyl]cyclopent-3-en-1-yl]hept-5-enoic acid] displayed an IC50 of 1.06 µM.
`CCCc1nnc(NC(=O)CN2C(=O)c3ccccc3S2(=O)=O)s1` [2-(1,1-dioxido-3-oxo-1,2-benzisothiazol-2(3H)-yl)-N-(5-propyl-1,3,4-thiadiazol-2-yl)acetamide] displayed a 50% inhibitory concentration (IC50) of 3.23 µM.
On to `CCOC(=O)CSc1nc2cc(C(=O)NCc3ccco3)ccc2c(=O)n1C1CCCCC1` [2-[[3-cyclohexyl-7-(2-furfurylcarbamoyl)-4-keto-quinazolin-2-yl]thio]acetic acid ethyl ester], for which the IC50 was 6.07 µM.
In the case of `COC(=O)c1ccc2c(=O)[nH]c(CN3c4ccccc4CC3C)nc2c1` (stereo not drawn) [methyl 2-[(2-methyl-2,3-dihydroindol-1-yl)methyl]-4-oxo-1H-quinazoline-7-carboxylate], the IC50 was 13.3 µM.
`O=C(CSc1nnc[nH]1)c1ccccc1` gave an IC50 of 5.52 µM. This IC50 lies about 2.4-fold lower than the previous one.
`O=C(CCN1C(=O)c2ccccc2C1=O)Nc1ccc(-c2nc3ccccc3o2)cc1` [MLS000051238] returned an IC50 of 5.8 µM. The IC50 values of the last two compounds are within 1.5-fold of each other.
On to `Nc1ccc(-c2nnc(-c3ccc(-c4ccccc4)cc3)o2)cc1` [4-[5-(4-phenylphenyl)-1,3,4-oxadiazol-2-yl]aniline], for which half-maximal inhibition (IC50) required 2.71 µM.
For `CCn1cc(C(=O)NCc2ccco2)c(=O)c2cc(S(=O)(=O)N3CCc4ccccc4C3)ccc21` [6-(3,4-dihydro-1H-isoquinolin-2-ylsulfonyl)-1-ethyl-N-(2-furanylmethyl)-4-oxo-3-quinolinecarboxamide] the value was 9.32 µM.
